US12662491B2 (Redona Therapeutics, Inc., priority 2020, dated 2026)
Read-outs that look alike come from different tables or passages of the source.

Molecular target: T1, Zcchc11 enzyme (Homo sapiens, UniProt Q5TAX3)
T1 construct: made in house; host or cells: HEK293 cells (Zcchc11); E. coli Rosetta II (LIN28A)
T1 sequence (Q5TAX3 212-1420): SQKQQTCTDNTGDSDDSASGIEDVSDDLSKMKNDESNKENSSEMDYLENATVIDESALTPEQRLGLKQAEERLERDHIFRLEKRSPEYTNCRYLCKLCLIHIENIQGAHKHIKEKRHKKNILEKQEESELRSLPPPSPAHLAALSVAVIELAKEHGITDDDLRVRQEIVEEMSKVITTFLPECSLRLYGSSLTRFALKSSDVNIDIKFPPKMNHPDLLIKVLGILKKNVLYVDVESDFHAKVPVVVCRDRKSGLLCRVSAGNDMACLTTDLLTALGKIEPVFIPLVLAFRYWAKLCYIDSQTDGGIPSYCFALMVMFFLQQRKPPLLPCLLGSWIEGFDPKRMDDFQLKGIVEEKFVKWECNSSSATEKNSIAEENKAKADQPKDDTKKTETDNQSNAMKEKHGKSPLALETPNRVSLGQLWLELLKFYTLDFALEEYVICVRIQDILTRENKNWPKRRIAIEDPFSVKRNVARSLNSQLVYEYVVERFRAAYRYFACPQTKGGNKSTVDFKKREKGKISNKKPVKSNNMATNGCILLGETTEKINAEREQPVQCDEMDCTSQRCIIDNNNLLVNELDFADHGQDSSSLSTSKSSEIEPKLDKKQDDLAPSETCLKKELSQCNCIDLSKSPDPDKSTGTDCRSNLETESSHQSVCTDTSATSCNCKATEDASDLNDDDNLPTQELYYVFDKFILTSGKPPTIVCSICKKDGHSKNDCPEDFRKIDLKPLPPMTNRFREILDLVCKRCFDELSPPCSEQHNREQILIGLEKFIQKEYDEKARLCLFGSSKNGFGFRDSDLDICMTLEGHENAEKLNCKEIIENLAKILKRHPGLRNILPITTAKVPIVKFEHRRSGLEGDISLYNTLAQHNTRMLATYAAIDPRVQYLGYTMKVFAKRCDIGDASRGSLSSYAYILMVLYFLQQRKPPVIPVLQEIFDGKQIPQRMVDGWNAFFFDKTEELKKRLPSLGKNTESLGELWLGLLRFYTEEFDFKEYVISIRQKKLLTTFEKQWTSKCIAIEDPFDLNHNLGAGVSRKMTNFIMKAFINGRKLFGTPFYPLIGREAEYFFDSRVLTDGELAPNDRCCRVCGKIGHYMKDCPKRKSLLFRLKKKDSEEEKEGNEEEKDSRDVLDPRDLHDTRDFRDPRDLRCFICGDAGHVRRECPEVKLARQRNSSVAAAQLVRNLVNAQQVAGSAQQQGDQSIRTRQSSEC
Test: TUTase assay (Zcchc11 assay, Lin28a-dependent polyuridylation of pre-let-7)
Type: biochemical
Settings: read-out: Potency Lin28a-dep Z11 IC50
Summary of the method: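 Polyuridylation measured as fluorescein loss when a rhodamine-labelled A20 probe anneals to U-tails added to fluorescein pre-let-7 (2 nM). Reaction: truncated Zcchc11 0.2 nM, E. coli-made LIN28A 10 nM, UTP 5 uM, HEPES pH 7.3, room temperature. Initial rates fitted to four-parameter IC50.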

[1] = Lin28a-dependent Zcchc11 (Z11) TUTase assay
[2] = Lin28a-dependent Zcchc11 (Z11) TUTase activity
[3] = LIN28A 10 nM, Zcchc11 0.2 nM, 5′-fluorescein pre-let-7 miRNA 2 nM, UTP 5 uM, room temperature, 30 minutes pre-incubation

IC50 [1] [nM] | IC50 [2] [nM] | further results | SMILES
1000 to 10000 | – | – | O=C(O)c1cn(C2CC(O)C2)c2cc(N3CCC[C@@H]3COc3ccccn3)c(F)cc2c1=O (stereo partly drawn) [Example 452, (R)-6-fluoro-1-(3-hydroxycyclo-butyl)-4-oxo-7-(2-((pyridin-2-yloxy)methyl)pyrrolidin-1-yl)-1,4-dihydroquinoline-3-carboxylic acid]
≤ 1000 | – | – | CN(C)CCNc1ccc(-n2cc(C(=O)O)c(=O)c3cc(Cl)c(N4CCC[C@@H]4COc4ncccc4Cl)cc32)cn1 [Example 416, (R)-6-chloro-7-(2-(((3-chloropyridin-2-yl)oxy)methyl)pyrrolidin-1-yl)-1-(6-((2-(dimethylamino)ethyl)amino)pyridin-3-yl)-4-oxo-1,4-dihydroquinoline-3-carboxylic acid]
≤ 1000 | – | – | CN(C)C1CN(c2ccc(-n3cc(C(=O)O)c(=O)c4cc(F)c(N5CCC[C@]5(C)COc5ncccc5Cl)nc43)cn2)C1 [Example 620, (R)-7-(2-(((3-chloropyridin-2-yl)oxy)methyl)-2-methylpyrrolidin-1-yl)-1-(6-(3-(dimethylamino)azetidin-1-yl)pyridin-3-yl)-6-fluoro-4-oxo-1,4-dihydro-1,8-naphthyridine-3-carboxylic acid]
≤ 1000 | – | – | COc1ccc(Cl)c(OC[C@H]2CC(C)(O)CN2c2cc3c(cc2Cl)c(=O)c(C(=O)O)cn3-c2ccc(N3CC(N(C)C)C3)nc2)n1 (stereo partly drawn) [Example 643, 6-chloro-7-((2R)-2-(((3-chloro-6-methoxypyridin-2-yl)oxy)methyl)-4-hydroxy-4-methylpyrrolidin-1-yl)-1-(6-(3-(dimethylamino)azetidin-1-yl)pyridin-3-yl)-4-oxo-1,4-dihydroquinoline-3-carboxylic acid]
– | 1000 to 10000 | – | O=C(O)c1cn(-c2cnccn2)c2nc(N3CCC[C@@H]3COc3nnccc3Cl)c(Cl)cc2c1=O (racemic) [Compound 193, rac-(R)-6-chloro-7-(2-(((4-chloro-pyridazin-3-yl)oxy)methyl)pyrrolidin-1-yl)-4-oxo-1-(pyrazin-2-yl)-1,4-dihydro-1,8-naphthyridine-3-carboxylic acid]
– | ≤ 1000 | – | CN(C)C1CN(c2ccc(-n3cc(C(=O)O)c(=O)c4cc(Cl)c(N5C6CC6C[C@@H]5COc5nc(OC6CC6)ccc5Cl)cc43)cn2)C1 (stereo partly drawn) [Compound 271, 6-chloro-7-((3R)-3-(((3-chloro-6-cycloprop-oxypyridin-2-yl)oxy)methyl)-2-azabicyclo [3.1.0]hexan-2-yl)-1-(6-(3-(dimethyl-amino)azetidin-1-yl)pyridin-3-yl)-4-oxo-1,4-dihydro-quinoline-3-carboxylic acid]
≤ 1000 | – | – | N#CCn1cc(C(=O)O)c(=O)c2cc(Cl)c(N3CCC[C@@H]3COc3ncccc3Cl)cc21 [Example 569, (R)-6-chloro-7-(2-(((3-chloropyridin-2-yl)oxy)methyl)pyrrolidin-1-yl)-1-(cyanomethyl)-4-oxo-1,4-dihydroquinoline-3-carboxylic acid]
1000 to 10000 | – | – | O=C(O)c1cn(-c2ccc(F)cn2)c2cc(N3CCC[C@@H]3COc3ccccn3)c(F)cc2c1=O [Example 380, (R)-6-fluoro-1-(5-fluoropyridin-2-yl)-4-oxo-7-(2-((pyridin-2-yloxy)methyl)pyrrolidin-1-yl)-1,4-dihydroquinoline-3-carboxylic acid]
– | ≤ 1000 | – | CN(C)CCn1cc(-n2cc(C(=O)O)c(=O)c3cc(C#N)c(N4CCC[C@@H]4COc4ncccc4Cl)cc32)cn1 [Compound 207]
– | 10000 to 50000 | – | O=C(O)c1cn(-c2ccc(O)cc2C(F)(F)F)c2cc(N3CCC[C@@H]3COc3ccccn3)c(F)cc2c1=O [Compound 164, (R)-6-fluoro-1-(4-hydroxy-2-(trifluoro-methyl)phenyl)-4-oxo-7-(2-((pyridin-2-yloxy)methyl)pyrrolidin-1-yl)-1,4-dihydro-quinoline-3-carboxylic acid]
– | ≤ 1000 | – | NCCOc1cccnc1OC[C@H]1CCCN1c1cc2c(cc1Cl)c(=O)c(C(=O)O)cn2-c1ccc(Br)nc1 (racemic) [Compound 313, rac-(R)-7-(2-(((3-(2-aminoethoxy)pyridin-2-yl)oxy)methyl)pyrrolidin-1-yl)-1-(6-bromopyridin-3-yl)-6-chloro-4-oxo-1,4-dihydro-quinoline-3-carboxylic acid]
≤ 1000 | – | – | Nc1cnc(-n2cc(C(=O)O)c(=O)c3cc(Cl)c(N4CCC[C@@H]4COc4ncccc4Cl)cc32)cn1 [Example 483, 1-(5-aminopyrazin-2-yl)-6-chloro-7-[(2R)-2-{[(3-chloropyridin-2-yl)oxy]methyl}pyrrolidin-1-yl]-4-oxo-1,4-dihydroquinoline-3-carboxylic acid]
≤ 1000 | – | – | CN(C)C1CN(c2ccc(-n3cc(C(=O)O)c(=O)c4cc(Cl)c(N5CCC[C@@H]5CS(=O)(=O)c5ncccc5Cl)cc43)cn2)C1 [Example 618, (R)-6-chloro-7-(2-(((3-chloropyridin-2-yl)sulfonyl)methyl)pyrrolidin-1-yl)-1-(6-(3-(dimethylamino)azetidin-1-yl)pyridin-3-yl)-4-oxo-1,4-dihydroquinoline-3-carboxylic acid]
≤ 1000 | – | – | Cc1nc(N2CC(N(C)C)C2)ccc1-n1cc(C(=O)O)c(=O)c2cc(Cl)c(N3CCC[C@@H]3COc3ncccc3Cl)cc21 [Example 584, (R)-6-chloro-7-(2-(((3-chloropyridin-2-yl)oxy)methyl)pyrrolidin-1-yl)-1-(6-(3-(dimethylamino)azetidin-1-yl)-2-methylpyridin-3-yl)-4-oxo-1,4-dihydroquinoline-3-carboxylic acid]
≤ 1000 | – | – | CN(C)[C@@H]1CCN(c2ccc(-n3cc(C(=O)O)c(=O)c4cc(Cl)c(N5CCC[C@@H]5COc5ncccc5Cl)cc43)cn2)C1 [Example 522, 6-chloro-7-((R)-2-(((3-chloropyridin-2-yl)oxy)methyl)pyrrolidin-1-yl)-1-(6-((R)-3-(dimethylamino)pyrrolidin-1-yl)pyridin-3-yl)-4-oxo-1,4-dihydroquinoline-3-carboxylic acid]
– | ≤ 1000 | – | COc1ccc(Cl)c(OC[C@H]2C[C@H](c3cccnc3)CN2c2cc3c(cc2Cl)c(=O)c(C(=O)O)cn3-c2ccc(N3CC(N(C)C)C3)nc2)n1 [Compound 348, 6-chloro-7-((2R,4R)-2-(((3-chloro-6-methoxy-pyridin-2-yl)oxy)methyl)-4-(pyridin-3-yl)pyrrolidin-1-yl)-1-(6-(3-(dimethyl-amino)azetidin-1-yl)pyridin-3-yl)-4-oxo-1,4-dihydro-quinoline-3-carboxylic acid]
– | – | IC50 [3]: ≤ 1000 nM | Cc1ccnn(C[C@H]2CCCN2c2cc3c(cc2F)c(=O)c(C(=O)O)cn3-c2ccc(O)cc2)c1=O [Example 23, (R)-6-fluoro-1-(4-hydroxyphenyl)-7-(2-((5-methyl-6-oxopyridazin-1(6H)-yl)methyl)pyrrolidin-1-yl)-4-oxo-1,4-dihydroquinoline-3-carboxylic acid]
– | – | IC50 [3]: ≤ 1000 nM | CN(C)C1CN(c2ccc(-n3cc(C(=O)O)c(=O)c4cc(Cl)c(N5CC6(CCC6)CC5COc5ncccc5Cl)cc43)cn2)C1 (stereo not shown) [Example 57, 6-Chloro-7-(7-(((3-chloropyridin-2-yl)oxy)methyl)-6-azaspiro[3.4]octan-6-yl)-1-(6-(3-(dimethylamino)azetidin-1-yl)pyridin-3-yl)-4-oxo-1,4-dihydroquinoline-3-carboxylic acid]
– | – | IC50 [3]: 10000 to 50000 nM | Cc1cc2c(=O)c(C(=O)O)cn(-c3ccc(N4CC(N(C)C)C4)nc3)c2cc1N1C(=O)CC1COc1ccccn1 (stereo not shown) [Example 52, 1-(6-(3-(dimethylamino)azetidin-1-yl)pyridin-3-yl)-6-methyl-4-oxo-7-(2-oxo-4-((pyridin-2-yloxy)methyl)azetidin-1-yl)-1,4-dihydroquinoline-3-carboxylic acid]
